In patent publication US20240207266A1, “METHODS FOR TREATING AND MONITORING PARKINSON'S DISEASE” (Denali Therapeutics Inc., priority 2021, published 2024):
Entries after “also recorded” stand apart in the source; their conditions may differ.

Experiments:
[1] = tested on: di-22:6-BMP; conditions: monkeys; Fuji 2015, Baptista 2020; cited from earlier work
[2] = molecular target: T1, pS935 LRRK2 (Homo sapiens, UniProt Q5S007); experiment: pS935 LRRK2 in whole blood, MSD immunoassay (target engagement, Phase 1/1b); assay type: in vivo; conditions: for reduction in pS935 compared with baseline: Phase 1 healthy volunteers
T1 construct: from tissue; host or cells: human whole blood from clinical study subjects (healthy subjects, and subjects with PD in Phase 1b)
T1 sequence (Q5S007 whole entry): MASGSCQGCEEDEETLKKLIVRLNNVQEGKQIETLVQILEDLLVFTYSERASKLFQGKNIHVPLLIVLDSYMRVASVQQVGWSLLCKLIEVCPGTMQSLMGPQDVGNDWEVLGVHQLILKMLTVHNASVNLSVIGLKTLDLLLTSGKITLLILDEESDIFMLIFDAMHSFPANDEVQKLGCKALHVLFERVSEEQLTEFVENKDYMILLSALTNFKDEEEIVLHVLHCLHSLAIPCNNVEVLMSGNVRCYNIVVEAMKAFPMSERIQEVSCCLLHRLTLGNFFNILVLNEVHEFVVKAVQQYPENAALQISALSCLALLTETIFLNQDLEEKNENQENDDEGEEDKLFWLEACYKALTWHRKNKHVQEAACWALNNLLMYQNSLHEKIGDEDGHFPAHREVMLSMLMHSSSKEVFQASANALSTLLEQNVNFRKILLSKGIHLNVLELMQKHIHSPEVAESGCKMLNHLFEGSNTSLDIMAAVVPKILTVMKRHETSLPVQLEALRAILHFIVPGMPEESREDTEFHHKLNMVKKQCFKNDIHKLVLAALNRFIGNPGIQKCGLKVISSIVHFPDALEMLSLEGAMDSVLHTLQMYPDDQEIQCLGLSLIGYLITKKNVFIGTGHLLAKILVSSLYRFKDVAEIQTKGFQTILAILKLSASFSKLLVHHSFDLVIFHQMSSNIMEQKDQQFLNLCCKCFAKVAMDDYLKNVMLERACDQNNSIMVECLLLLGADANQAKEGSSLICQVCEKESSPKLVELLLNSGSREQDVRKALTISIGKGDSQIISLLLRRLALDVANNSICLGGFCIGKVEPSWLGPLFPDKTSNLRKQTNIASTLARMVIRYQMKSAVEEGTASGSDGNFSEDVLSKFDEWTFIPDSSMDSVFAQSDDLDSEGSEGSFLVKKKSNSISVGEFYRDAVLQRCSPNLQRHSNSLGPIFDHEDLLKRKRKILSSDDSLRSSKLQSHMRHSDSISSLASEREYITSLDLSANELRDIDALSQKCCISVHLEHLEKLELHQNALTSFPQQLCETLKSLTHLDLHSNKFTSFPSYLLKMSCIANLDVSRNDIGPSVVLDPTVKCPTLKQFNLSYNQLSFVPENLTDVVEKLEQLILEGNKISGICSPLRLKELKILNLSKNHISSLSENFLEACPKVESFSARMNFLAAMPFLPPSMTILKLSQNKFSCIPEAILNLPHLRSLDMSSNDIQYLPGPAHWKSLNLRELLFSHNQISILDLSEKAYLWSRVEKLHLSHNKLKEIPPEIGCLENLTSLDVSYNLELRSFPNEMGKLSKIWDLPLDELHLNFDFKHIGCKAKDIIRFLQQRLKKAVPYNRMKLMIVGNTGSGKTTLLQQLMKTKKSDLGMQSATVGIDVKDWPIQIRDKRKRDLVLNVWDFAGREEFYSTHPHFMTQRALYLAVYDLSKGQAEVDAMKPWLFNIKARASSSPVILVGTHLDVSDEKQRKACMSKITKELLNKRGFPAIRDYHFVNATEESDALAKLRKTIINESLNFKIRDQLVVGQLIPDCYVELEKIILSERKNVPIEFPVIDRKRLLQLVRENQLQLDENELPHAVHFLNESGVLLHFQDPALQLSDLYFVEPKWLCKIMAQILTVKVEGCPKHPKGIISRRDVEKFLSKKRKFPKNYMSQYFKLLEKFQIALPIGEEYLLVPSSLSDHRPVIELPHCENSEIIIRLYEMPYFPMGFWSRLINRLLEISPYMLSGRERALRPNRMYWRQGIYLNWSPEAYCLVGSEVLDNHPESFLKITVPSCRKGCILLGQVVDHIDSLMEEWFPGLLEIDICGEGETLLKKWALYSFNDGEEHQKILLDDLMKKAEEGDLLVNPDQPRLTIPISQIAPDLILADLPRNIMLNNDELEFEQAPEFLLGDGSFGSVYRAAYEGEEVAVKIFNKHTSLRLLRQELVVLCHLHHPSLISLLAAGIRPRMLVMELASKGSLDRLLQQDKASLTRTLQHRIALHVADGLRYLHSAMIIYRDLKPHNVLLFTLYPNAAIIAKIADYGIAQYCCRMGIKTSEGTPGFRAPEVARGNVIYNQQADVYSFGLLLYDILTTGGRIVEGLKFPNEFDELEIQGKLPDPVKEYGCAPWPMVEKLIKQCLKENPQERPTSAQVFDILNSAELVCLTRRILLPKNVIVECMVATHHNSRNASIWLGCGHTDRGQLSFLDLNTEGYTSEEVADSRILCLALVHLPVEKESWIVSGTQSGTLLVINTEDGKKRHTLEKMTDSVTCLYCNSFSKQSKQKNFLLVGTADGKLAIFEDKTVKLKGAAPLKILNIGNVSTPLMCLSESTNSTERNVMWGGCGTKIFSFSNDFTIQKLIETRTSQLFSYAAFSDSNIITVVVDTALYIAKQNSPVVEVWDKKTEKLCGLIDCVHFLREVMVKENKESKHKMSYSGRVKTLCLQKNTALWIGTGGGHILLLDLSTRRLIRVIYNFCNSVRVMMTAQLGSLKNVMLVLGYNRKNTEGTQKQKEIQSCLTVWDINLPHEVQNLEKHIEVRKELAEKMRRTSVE
Description: Frozen human whole blood samples were thawed and directly lysed in 96-well plates (100 μl whole blood sample with 100 μl lysis buffer). Samples were spun down (2,500×g for 20 minutes at 4° C.) before MSD assay.
(§1) Capture antibodies were biotinylated using EZ-Link™ NHS-LC-LC-Biotin (Thermo Fisher, #21343), and detection antibodies were conjugated using Sulfo-TAG NHS-Ester (MSD, R31AA-1). 96-well (or 384-well) MSD GOLD Small Spot Streptavidin plates (MSD L45SSA-1) were coated with 25 μl (or 15 μl for 384 well plates) of capture antibody diluted in Diluent 100 (MSD, R50AA-2) for 1 hour at room temperature with 700 rpm shaking (1000 rpm for 384-well). After TBST wash (3×), 25 μl samples were added each well (10 μl for 384-well) and incubated at 4° C. overnight with agitation at 700 rpm. After TBST wash (3×), 25 μl of detection antibodies (15 μl for 384-well) were added each well diluted in TBST containing 25% MSD blocker A (MSD R93AA-1), together with rabbit (Rockland Antibodies D610-1000) and mouse gamma globin fraction (D609-0100). After 1 hour incubation at room temperature at 700 rpm, followed by TBST washes (3×), 150 μl MSD read buffer (MSD R92TC. 1:1 diluted with water) is added (35 μl for 384-well), and plates are read on the MSD Sector S 600.

[3] = CSF penetration, CSF/unbound plasma ratio (Phase 1/1b); assay type: in vivo, human
[4] = tested on: pT73 Rab10; experiment: pRab10 in PBMCs, MSD immunoassay (pathway engagement, Phase 1/1b); assay type: in vivo, human
Description: Blood was collected into CPT-sodium heparin tubes (BD BDAM362780) and PBMCs were then isolated following the manufacturer's protocol. The PBMCs were pelleted by centrifugation at maximum speed and then resuspended in PBMC lysis buffer (1× cell lysis buffer [CST catalog #9803] with PhosSTOP phosphatase inhibitor [Roche 04906837001], complete protease inhibitor [Roche 04693159001], and Benzonase [Sigma E8263]). The lysates were held on ice for 20 minutes, followed by centrifugation at maximum speed at 4° C. for 20 minutes. Supernatants were aliquoted and stored at −80° C. for later immunoassay analysis.
as §1

[5] = Phase 1 first-in-human study, safety and tolerability, multiple-dose cohorts (Parts B, D, E); assay type: in vivo
Description: This double-blind, placebo-controlled Phase 1 study comprised single-ascending dose (SAD) and 10-day, 14-day, and 28-day multiple-ascending dose (MAD) parts in healthy volunteers. BID=twice daily; PBO=placebo; QD=once daily.
In a separate analysis of ≥1 TEAE in ≥2 subjects per treatment arm included the following additional TEAEs not listed above: ear pain (n=2; 105 mg QD 10-day cohort); nasopharyngitis (n=2; 225 mg QD 28-day cohort); asymptomatic COVID-19 (n=2; 400 mg BID 14-day cohort); somnolence (n=2; 250 mg BID 14-day cohort). 2 subjects also experienced presyncope associated with lumbar puncture (one each for 150 and 225 mg QD 28-day cohort).
In the Phase 1 study in healthy volunteers, the demographics of participants was as follows: • 184 HVs (145 active, 39 placebo) were treated with single or multiple once daily (QD) or twice daily (BID) doses up to 28 days in the following study Parts: • Part A (SAD; young HVs; n=48): 100% male and median age of 25 (range, 18-50) years; • Part B (10-day MAD; young HVs; n=80): 99% male and median age of 26.5 (range, 18-50) years; • Part C (SAD: elderly HVs; n=8): 50% male and median age of 69 (range, 67-74) years; • Part D (28-day MAD; young HVs; n=17): 100% male and median age of 29 (range, 18-39) years; and • E (14-day MAD: young HVs: n=31): 100% male and median age 30 (range 18-50) years.
This was a Phase 1, randomized, placebo-controlled, double-blind FIH study designed to determine the safety, tolerability. PK, and pharmacodynamics of compound I in healthy subjects.
Part B of this study was composed of sequential multiple ascending dose (MAD) cohorts. Healthy subjects were enrolled in 8 cohorts (Cohorts B1-B8; n=10/cohort) and were administered compound I 15, 30, 45, 70, 105, 150, 225, or 300 mg or placebo (4:1 ratio) QD for 10 days.
Part D was composed of a multiple-dose cohort (Cohort D1) of healthy subjects administered either compound I 225 mg (n=13) or placebo (n=4) QD for 28 days.
Part E is composed of sequential MAD cohorts. Healthy subjects in Cohort E1 were administered compound I 150 mg or placebo BID (4:1 ratio) for 14 days (n=9) and subjects in Cohort E2 were administered compound I 250 mg or placebo BID (4:1 ratio) for 14 days (n=11). Subjects in the ongoing Cohort E3 are being administered […] or placebo BID (4:1 ratio) for 14 days.

[6] = Phase 1b study in subjects with Parkinson's disease, safety and tolerability; assay type: in vivo, human
From the text: This study was a double-blind, placebo-controlled, parallel-design Phase 1b study with 28-day dosing, administered once daily in Parkinson's disease patients.
GERD, gastroesophageal reflux disease: TEAE, treatment-emergent adverse event. ^aProcedural related includes (in order of frequency): procedural pain, post procedural contusion, post procedural hematoma, and procedural headache; ^bHypotension and orthostatic hypotension occurred in the same two patients.
A total of 36 patients with PD (26 active, 10 placebo) were treated with up to 300 mg QD for 28 days (FIG. 8).
This was a Phase 1b, randomized, placebo-controlled, double-blind study designed to determine the safety, tolerability, PK, and pharmacodynamics of compound I in subjects with PD. The conduct of this study has been completed and the clinical study report is in progress. In Part 1, subjects were administered compound I 80 mg or placebo QD (1:1 ratio) for 28 days (n=8). In Part 2, subjects were administered compound I 80 or 130 mg or placebo QD (1:2:1 ratio) for 28 days (n=17). In Part 3, subjects were administered compound I 300 mg or placebo QD (4:1 ratio) for 28 days (n=11).

[7] = Clinical safety across the Phase 1 and Phase 1b studies (conclusions); assay type: in vivo, human
From the text: Based on the 2-fold increase in kinase activity associated with LRRK2 G2019S point mutations, reduction of whole-blood pS935 LRRK2 of ≥50% at trough in ≥50% of the study subjects represents a minimal pharmacodynamic target.
Safety data from Phase 1 first in human study in healthy subjects and Phase 1b study in subjects with PD are summarized below.
The most common TEAE in compound I-treated participants was headache.

[8] = tested on: BMP(22:6/22:6); experiment: Urine BMP(22:6/22:6) (lysosomal engagement, Phase 1/1b); assay type: in vivo, human; conditions: HVs and patients with PD
From the text: BMP concentrations were normalized to creatinine concentrations (ng/mg).
Lysosomal lipid BMP 22:6/22:6 (referred to throughout the document as “BMP”) measured in urine represents a mechanistic marker of correction of the lysosomal pathways downstream of LRRK2. BMP is a lysosomal phospholipid found exclusively on the intraluminal vesicles of late endosomes and lysosomes (Bissig and Gruenberg, Cold Spring Harb Perspect Biol. 2013; 5(10):a016816). Individuals with genetic or drug-induced lysosomal function disorders, including those with G2019S LRRK2 mutations, have increased levels of urine BMP (Lecommandeur et al., J Lipid Res. 2017:58(7): 1306-14; Alcalay et al., Mov Disord. 2013; 28(14):1966-71).

[9] = Phase 1 first-in-human study, safety and tolerability, multiple-dose cohorts (Parts B, D, E); assay type: in vivo; conditions: Part E, healthy subjects; procedural headache (250 mg BID), headache and malaise (40 mg BID)
[10] = Part B, healthy subjects, 15-300 mg QD for 10 days
[11] = Part D, healthy subjects, 225 mg QD for 28 days
[12] = Part E, healthy subjects, BID for 14 days
[13] = subjects with PD, 80, 130 or 300 mg QD for 28 days
[14] = subjects with PD, 80-300 mg QD for 28 days

CCNc1nc(Nc2cc(F)c(C(=O)N3CCOCC3)cc2OC)ncc1C(F)(F)F [GNE-7915]
urine di-22:6-BMP [1]: decreased

CCNc1nc(Nc2cc(C(C)(C)n3nccn3)nn2C2CC2)ncc1C(F)(F)F [compound I, N2-(3-(2-(2H-1,2,3-triazol-2-yl)propan-2-yl)-1-cyclopropyl-1H-pyrazol-5-yl)-N4-ethyl-5-(trifluoromethyl)pyrimidine-2,4-diamine]
target and pathway engagement ([2]; HVs and patients with PD, at doses generally well tolerated): robust target engagement and pathway engagement; also recorded: Robust target and pathway engagement | reduction of pS935 in whole blood ([2]; Phase 1b patients with PD, trough (predose), steady state (Day 28), all dose levels studied): robust reduction | reduction in pS935 compared with baseline ([2]; whole blood, trough (predose) at steady state (Day 10 Cohort B, Day 28 Cohort D, Day 14 Cohort E), highest dose): ≥ 80% | reduction in pS935 compared with baseline ([2]; whole blood, trough (predose) at steady state, lowest clinically relevant dose): ≥ 50% | pS935 reduced by at least ([2]; whole blood, about 70 to 800 mg/day, stated as an aspect of the method): 41-97% | CSF penetration based on the CSF/unbound plasma ratio [3]: high CSF penetration | pRab10 reduced by at least ([4]; PBMC, about 70 to 800 mg/day, stated as an aspect of the method): 44-97% | reduction of phosphorylation of Rab10 (pRab10) in PBMCs ([4]; Phase 1 HVs, trough (predose), steady state (Day 10 Cohort B, Day 28 Cohort D, Day 14 Cohort E), highest dose): ≥ 70% | pRab10 in PBMCs ([4]; Phase 1b patients with PD, trough (predose), steady state, all doses): reduced | presyncope associated with lumbar puncture ([5]; FIG. 9 legend, one each for 150 and 225 mg QD 28-day cohort): 2 subjects | changes in safety laboratory, vital signs, ECG, neurological examination, PFT or C-SSRS results [5, 10]: No clinically significant changes | deaths, other SAEs, AESIs or TEAEs leading to study drug discontinuation [5, 10]: No deaths, other SAEs (serious adverse events), AESIs (adverse events of special interests), or treatment-emergent adverse events (TEAEs) leading to study drug discontinuation were reported | subjects who experienced a severe TEAE [5, 10]: no subjects | subjects who experienced ≥1 TEAE [5, 10]: 56 (86.2%) subjects (%) | subjects who experienced ≥1 mild TEAE [5, 10]: 55 (84.6%) subjects (%) | subjects who experienced ≥1 moderate TEAE [5, 10]: 9 (13.8%) subjects (%) | tolerability ([5]; Part B, healthy subjects, multiple doses up to 300 mg QD for 10 days): generally well tolerated | changes in safety laboratory, vital sign, ECG, neurological examination, PFT or C-SSRS results [5, 11]: No other clinically significant changes | deaths, other SAEs or AESIs [5, 11]: No deaths, other SAEs, or AESIs were reported | subjects who experienced a moderate or severe TEAE [5, 11]: no subjects | subjects who experienced ≥1 TEAE [5, 11]: 10 (77%) subjects (%) | subjects who experienced ≥1 mild TEAE [5, 11]: 10 (77%) subjects (%) | tolerability [5, 11]: generally well tolerated | tolerability ([5]; Part E, Cohorts E1 and E2, healthy subjects, 150 and 250 mg BID for 14 days): generally well tolerated | subjects with moderate TEAEs ([5]; Part E, healthy subjects, 250 mg BID for 14 days): 2 subjects | SAEs or AESIs [5, 12]: No SAEs or AESIs were reported | changes in vital sign, ECG, telemetry, safety laboratory (including liver and renal function testing), PFT, neurological examination or C-SSRS results [5, 12]: No clinically significant changes | subjects who experienced 1 TEAE [5, 12]: 25 (100.0%) subjects (%) | study-drug related discontinuations ([5]; Part E, healthy subjects, one at 250 mg BID, one at 400 mg): Two study-drug related discontinuations | SAEs or AESIs [6, 13]: No SAEs or AESIs were reported | tolerability [6, 13]: generally well tolerated | changes from baseline or trends in safety laboratory (including liver and renal function testing), ECG, neurological assessment, vital sign, PFT or C-SSRS results [6, 14]: No other clinically significant individual changes from baseline or notable trends | subjects who experienced ≥1 TEAE [6, 14]: 23 (88.5%) subjects (%) | subjects with moderate TEAEs [6, 14]: 5 (19%) subjects (%) | additional subjects with TEAEs of mild orthostatic hypotension / mild hypotension plus orthostatic hypotension ([6]; subjects with PD, 80 mg QD and 300 mg QD, resolved while on study drug): Two additional subjects | subjects with severe TEAEs ([6]; subjects with PD, hypotension (130 mg QD), headache (300 mg QD), both considered not related to study drug): Two subjects | most common TEAE ([7]; HVs and patients with PD): headache | changes in pulmonary or renal function ([7]; HVs and patients with PD, up to 28 days): no clinically meaningful changes | tolerability ([7]; broad range of doses, HVs and patients with PD, up to 28 days): generally well tolerated | changes in potential LRRK2 on-target renal or pulmonary function ([7]; healthy subjects and subjects with PD, up to 28 days of exposure): no apparent changes | safety and tolerability ([7]; over 200 subjects, doses up to 400 mg BID for 14 days in healthy volunteers or 225 mg for 28 days): safe and generally well tolerated | lysosomal lipid BMP 22:6 in urine [8]: dose-dependent reduction | subjects with severe TEAEs [9]: two subjects

CNc1nc(Nc2cn(C(C)(C)C#N)nc2C)ncc1C(F)(F)F [GNE-0877]
urine di-22:6-BMP [1]: decreased
